Reference: PubChem BioAssay (NCI)
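GI50: concentration for 50% inhibition of growth. The concentration for full growth arrest is given as TGI.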

Legend:
Experiment in all cases: DTP human tumour cell line panel, 384-well format
[1] = tested on: CCRF-CEM leukemia
[2] = tested on: OVCAR-5 ovarian
[3] = tested on: NCI-H522 lung
[4] = tested on: SF-295 CNS
[5] = tested on: HOP-62 NSCLC
[6] = tested on: 786-0 renal
[7] = tested on: TK-10 renal
[8] = tested on: MDA-MB-231 breast
[9] = tested on: U251 glioblastoma
[10] = tested on: NCI-H23 lung
[11] = tested on: HL-60(TB) leukemia
[12] = tested on: M14 melanoma
[13] = tested on: A549 NSCLC
[14] = tested on: HCT-15 colon
[15] = tested on: MCF7 breast
[16] = tested on: LOX IMVI melanoma
[17] = tested on: NCI-H322M lung
[18] = tested on: ACHN renal
[19] = tested on: SK-OV-3 ovarian
[20] = tested on: IGROV1 ovarian
[21] = tested on: OVCAR-3 ovarian
[22] = tested on: SK-MEL-28 melanoma
[23] = tested on: OVCAR-4 ovarian
[24] = tested on: DU-145 prostate
[25] = tested on: SK-MEL-2 melanoma
[26] = tested on: A498 renal
[27] = tested on: BT-549 breast
[28] = tested on: SN12C renal
[29] = tested on: UACC-257 melanoma
[30] = tested on: NCI/ADR-RES ovarian
[31] = tested on: OVCAR-8 ovarian
[32] = tested on: UACC-62 melanoma
[33] = tested on: CAKI-1 renal
[34] = tested on: UO-31 renal
[35] = tested on: MOLT-4 leukemia
[36] = tested on: NCI-H226 lung
[37] = tested on: RPMI-8226 leukemia
[38] = tested on: COLO 205 colon
[39] = tested on: T-47D breast
[40] = tested on: SW-620 colon
[41] = tested on: MALME-3M melanoma
[42] = tested on: SNB-19 CNS
[43] = tested on: PC-3 prostate
[44] = tested on: SF-539 CNS
[45] = tested on: SK-MEL-5 melanoma
[46] = tested on: SF-268 CNS
[47] = tested on: K-562 leukemia
[48] = tested on: MDA-MB-435 melanoma
[49] = tested on: MDA-MB-468 breast
[50] = tested on: SR leukemia
[51] = tested on: HCT-116 colon
[52] = tested on: HT29 colon
[53] = tested on: RXF 393 renal
[54] = tested on: HCC-2998 colon
[55] = tested on: NCI-H460 NSCLC
[56] = tested on: KM12 colon
[57] = tested on: HOP-92 NSCLC

## Cc1cc(NC(=O)c2ccc(NS(=O)(=O)CCO)cc2N2CCC3(CC2)CC3)nc(N2CCC(F)(F)CC2)n1
[1]
  GI50: 1720 nM
  TGI: 3120 nM
[2]
  GI50: 2010 nM
  TGI: 4700 nM
[3]
  GI50: 1860 nM
  TGI: 4330 nM
[4]
  GI50: 373 nM
  TGI: 1140 nM
[5]
  GI50: 1940 nM
  TGI: 3650 nM
[6]
  GI50: 1630 nM
  TGI: 3070 nM
[7]
  GI50: 2160 nM
  TGI: 4760 nM
[8]
  GI50: 74.3 nM
  TGI: 2480 nM
[9]
  GI50: 60.8 nM
  TGI: 479 nM
[10]
  GI50: 1310 nM
  TGI: 2670 nM
[11]
  GI50: 2200 nM
  TGI: 3670 nM
[12]
  GI50: 328 nM
  TGI: 1250 nM
[13]
  GI50: 2530 nM
  TGI: 6670 nM
[14]
  GI50: 1660 nM
  TGI: 3060 nM
[15]
  GI50: 2090 nM
  TGI: 4910 nM
[16]
  GI50: 2120 nM
  TGI: 3580 nM
[17]
  GI50: 564 nM
  TGI: 3370 nM
[18]
  GI50: 2020 nM
  TGI: 4940 nM
[19]
  GI50: 89.5 nM
  TGI: 5810 nM
[20]
  GI50: 1940 nM
  TGI: 4960 nM
[21]
  TGI: 23.5 nM
[22]
  GI50: 792 nM
  TGI: 5840 nM
[23]
  GI50: 258 nM
  TGI: 1300 nM
[24]
  GI50: 56.3 nM
  TGI: 2700 nM
[25]
  GI50: 89.9 nM
  TGI: 2910 nM
[26]
  GI50: 484 nM
  TGI: 2350 nM
[27]
  GI50: 24.6 nM
  TGI: 1260 nM
[28]
  GI50: 1850 nM
  TGI: 3530 nM
[29]
  GI50: 390 nM
  TGI: 1960 nM
[30]
  GI50: 101 nM
  TGI: 703 nM
[31]
  GI50: 71.6 nM
  TGI: 2610 nM
[32]
  GI50: 1590 nM
  TGI: 3490 nM
[33]
  GI50: 1890 nM
  TGI: 6280 nM
[34]
  GI50: 1250 nM
  TGI: 2890 nM
[35]
  GI50: 1760 nM
  TGI: 3180 nM
[36]
  GI50: 1570 nM
  TGI: 3130 nM
[37]
  GI50: 1590 nM
  TGI: 2950 nM
[38]
  GI50: 1660 nM
  TGI: 3280 nM
[39]
  GI50: 694 nM
  TGI: 14100 nM
[40]
  GI50: 1650 nM
  TGI: 3140 nM
[41]
  GI50: 614 nM
  TGI: 3420 nM
[42]
  GI50: 1440 nM
  TGI: 3110 nM
[43]
  GI50: 1850 nM
  TGI: 3390 nM
[44]
  GI50: 53.7 nM
  TGI: 391 nM
[45]
  GI50: 1680 nM
  TGI: 3070 nM
[46]
  GI50: 1420 nM
  TGI: 3310 nM
[47]
  GI50: 1570 nM
  TGI: 3040 nM
[48]
  GI50: 686 nM
  TGI: 5300 nM
[49]
  GI50: 35.2 nM
  TGI: 648 nM
[50]
  GI50: 22.1 nM
  TGI: 135 nM
[51]
  GI50: 1440 nM
  TGI: 2850 nM
[52]
  GI50: 31.7 nM
  TGI: 152 nM
[53]
  GI50: 13.5 nM
  TGI: 66.6 nM
[54]
  GI50: 72.5 nM
  TGI: 402 nM
[55]
  GI50: 298 nM
  TGI: 1050 nM
[56]
  GI50: 694 nM
  TGI: 2180 nM
[57]
  GI50: 1890 nM
  TGI: 3410 nM
